Results taken from US20180296630A1, “METHODS AND COMPOSITIONS FOR PREVENTING OR TREATING OPHTHALMIC CONDITIONS” (Stealth BioTherapeutics Corp, priority 2012, published 2018).

How the values were obtained:
[1] = system: primary human retinal pigment epithelial (RPE) cells; experiment: Viability of primary RPE cells incubated with peptide alone (MTT); assay type: cell-based; details: different concentrations of peptide alone; 24 h
Procedure: Primary retinal pigment epithelial (RPE) cells were cultured to test the effects of the aromatic-cationic peptides of the invention in preventing or reducing oxidative damage in these cells. Methods useful for the study of primary retinal pigment epithelial cells have been described. See, Dunn et al., ARPE-19, A Human Retinal Pigment Epithelial Cell Line with Differentiated Properties, Experimental Eye Research, 1996, 62(2): 155-170. […] Primary cultured human RPE cells were incubated with different concentrations of D-Arg-2′,6′-Dmt-Lys-Phe-NH2 alone for a period of 24 h, and cell viability was determined by a MTT assay (FIG. 22).

HTM cells = experiment: Intracellular ROS production, acute H2O2 injury, FACS, HTM cells; assay type: cell-based, human; details: n=4
Description: The percentage of intracellular ROS production compared to GTM control in GTM H2O2, D-Arg-2′,6′-Dmt-Lys-Phe-NH2 10^−6M, D-Arg-2′,6′-Dmt-Lys-Phe-NH2 10^−7M, D-Arg-2′,6′-Dmt-Lys-Phe-NH2 10^−8M groups were 146.0±2.27%, 84.5±8.75%, 102.0±5.69%, 133.0±5.17% respectively (n=3); the HTM groups were 153.0±3.46%, 79±2.39%, 91.8±3.49%, 129.0±8.24% respectively (n=4). P<0.001 GTM and HTM H2O2 Group compared to control; *** means P<0.001 compared to GTM H2O2 group; ▴ ▴ ▴ Means P<0.001 compared to HTM H2O2 group; ▴ ▴ means P<0.01 compared to HTM H2O2 group.

[2] = system: STZ and HFD/STZ diabetic rats; experiment: Lens epithelium changes in diabetic SD rats; assay type: in vivo, Sprague-Dawley rat; details: STZ rat model and HFD/STZ rat model
Procedure: A rat model of diabetes was established by combination of 6-week HFD and low dose of STZ (30 mg/kg) injection or a single high dose of STZ (65 mg/kg) in SD rats. See generally, K. Srinivasan, B. Viswanad, Lydia Asrat, C. L. Kaul and P. Ramarao, Combination of high-fat diet-fed and low-dose streptozotocin-treated rat: A model for type 2 diabetes and pharmacological screening, Pharmacological Research, 52(4): 313-320, 2005. Rats of the same batch fed with normal chow (NRC) were used as a control.
The effect of the aromatic cationic peptides on lens epithelium in the SD rat model was investigated. Administration of D-Arg-2′,6′-Dmt-Lys-Phe-NH2 reduced epithelial cellular changes in both STZ rat model (FIG. 8) and HFD/STZ rat model (FIG. 9).

GTM3 cells = experiment: MMP decline, sustained oxidative injury by H2O2, GTM3 cells; assay type: cell-based, human; details: then 200 μM H2O2 24 h
Procedure: The effects of D-Arg-2′,6′-Dmt-Lys-Phe-NH2 on sustained oxidative injury of GTM and HTM cells was examined. Cells were pre-treated with 10^−6, 10^−7, 10^−8M of D-Arg-2′,6′-Dmt-Lys-Phe-NH2 for 1 h, and then incubated with 200 μM H2O2 for 24 h to investigate the protective effect of D-Arg-2′,6′-Dmt-Lys-Phe-NH2 in sustained oxidative stress.

STZ-treated mice = experiment: Spatial frequency (SPF) threshold in STZ-treated / diabetic-diet mice; assay type: in vivo
Procedure: Subjects were maintained on a normal diet (ND) or diabetic diet (DD) for up to 32 weeks, and were administered D-Arg-2′,6′-Dmt-Lys-Phe-NH2 or control vehicle with or without streptozotocin. Results are shown in FIG. 41, with response values are averaged for each eye.

[3] = system: STZ diabetic rats with intraocular ischemia/reperfusion; experiment: Efficacy Pharmacological Test 1: diabetic rats, intraocular ischemia/reperfusion, visual cell layer edema

D-Arg-2′,6′-Dmt-Lys-Phe-NH2 was tested, and the “cell viability (MTT assay)” value [1] was “did not adversely effect these cells”, the “percentage of intracellular ROS production compared to control” value (shortened to “percentage”) (HTM cells; 10^−6M) was 79±2.39% and the “percentage” value (HTM cells; 10^−7M) was 91.8±3.49%. For the same substance, the “percentage” value (HTM cells; 10^−8M) was 129.0±8.24%, the “epithelial cellular changes of the lens epithelium” value [2] was “reduced” and the “MMP Decline” value (GTM3 cells; 0.01 μM pre-treatment 1 h) was −31.33 ± 1.20 %. For the same substance, the “MMP Decline” value (GTM3 cells; 0.1 μM pre-treatment 1 h) was −29.33 ± 2.19 %, the “MMP Decline” value (GTM3 cells; 1 μM pre-treatment 1 h) was −24.33 ± 4.18 % and the “rescue of visual impairment by eyedrop versus systemic administration” value (STZ-treated mice; STZ-treated animals maintained on a diabetic diet, eyedrop) was “one month sooner”. The “time by which the visual deficit was fully rescued” value (STZ-treated mice; STZ-treated animals, systemic treatment initiated at 12 weeks) was at most 24 weeks, the “time by which rescue was shown” value (STZ-treated mice; animals on a diabetic diet alone) was at most 30 weeks and the “time by which the visual deficit was fully restored” value (STZ-treated mice; animals on a diabetic diet and administered STZ) was at most 24 weeks. The “visual impairment (spatial frequency threshold)” value (STZ-treated mice; animals with metabolic dysfunction) was “rescued”, the “loss of nuclei in the inner retinal layer” value ([3]; compared to the diabetic control group) was “absent, or much diminished” and the “edema of the visual cell layer after ischemia/reperfusion” value ([3]; diabetic groups, oral, parenteral or eye drops twice per day) was “no edema or very low levels of edema”.
